Results on ten compounds are retold here after ChEMBL document CHEMBL5365491, “Synthesis and anti-tumor activities in human leukemia-derived cells of polyenylpyrroles with a methyl group at the conjugated polyene terminus” (Bioorg Med Chem Lett, 2023).

Common to all, as to format: functional, cell-based
For experiment [1], the system named is THP-1. Put plainly: Antitumor activity against human THP-1 cells assessed as inhibition in cell killing activity.
Experiment [2] has as its system TF-1. Put plainly: Antitumor activity against human TF-1 cells assessed as inhibition in cell killing activity.
Experiment [3] relates to CCRF-CEM. The experiment can be described thus: Antitumor activity against human CCRF-CEM cells assessed as cell killing activity.
Experiment [4] concerns Raji. The experiment can be described thus: Antitumor activity against human Raji cells assessed as cell killing activity.
Experiment [5] relates to K562. The experiment can be described thus: Antitumor activity against human K562 cells assessed as inhibition in cell killing activity.
The test system of experiment [6] is CCRF-CEM. The experiment can be described thus: Growth inhibition of human CCRF-CEM cells measured after 72 hrs by CCK8 assay.
Experiment [7] concerns Raji. Put plainly: Growth inhibition of human Raji cells measured after 72 hrs by CCK8 assay. For orientation: Tetrazolium dyes change colour on reduction, which living cells bring about.
For experiment [8], the system named is K562. Put plainly: Growth inhibition of human K562 cells measured after 72 hrs by CCK8 assay. The settings on record: K562, 72 h.
The subject of experiment [9] is TF-1. The experiment can be described thus: Growth inhibition of human TF-1 cells measured after 72 hrs by CCK8 assay. The settings on record: TF-1, 72 h.
For experiment [10], the system named is THP-1. The experiment can be described thus: Growth inhibition of human THP-1 cells measured after 72 hrs by CCK8 assay. The following applies: THP-1, 72 h.

`CCOC(=O)/C=C/C=C/C=C/C=C/c1ccc[nH]1`: the figures for the IC50 in the experiment with THP-1 [1], in the experiment with TF-1 [2] and with CCRF-CEM [3] (read-out: pIC50 (converted)) were 770 nM, 250 nM and 1260 nM, respectively.
Regarding `CCOC(=O)/C(C)=C/C=C/c1[nH]ccc1Cl`, the IC50 in the experiment with Raji [4] was > 10000 nM; in the experiment on CCRF-CEM [3] (read-out: IC50), 8400 nM; with CCRF-CEM [3] (read-out: pIC50 (converted)) it was 7940 nM.
In the case of `CCOC(=O)/C(C)=C/C=C/C=C/C=C/c1[nH]ccc1Cl`, the IC50 in the experiment on THP-1 [1] was 150 nM; with Raji [4], > 10000 nM; with TF-1 [2] it was 37 nM; with CCRF-CEM [3] (read-out: IC50), 63 nM; in the experiment with CCRF-CEM [3] (read-out: pIC50 (converted)) it was 63.1 nM; in the experiment on K562 [5], 1600 nM.
Consider `CCOC(=O)/C(C)=C/C=C/C=C/c1[nH]ccc1Cl`, for which the results for the IC50 in the experiment on Raji [4], in the experiment with CCRF-CEM [3] (read-out: IC50) and with CCRF-CEM [3] (read-out: pIC50 (converted)) were > 10000 nM, 230 nM and 251 nM, respectively.
Take `COc1cc(/C=C/C=C/C=C/C=C/c2[nH]ccc2Cl)oc(=O)c1` [AUXARCONJUGATIN B]: the IC50 in the experiment on THP-1 [1] was 1300 nM; with TF-1 [2], 440 nM; in the experiment on CCRF-CEM [3] (read-out: pIC50 (converted)), 501 nM; with K562 [5], 4900 nM.
On to `CCOC(=O)/C=C/C=C/C=C/C=C/c1cccn1C`, for which the values for the IC50 with CCRF-CEM [6], in the experiment with Raji [7] and in the experiment with CCRF-CEM [3] (read-out: pIC50 (converted)) were 10000 nM, 10000 nM and > 10000 nM, respectively.
`COc1cc(\C(C)=C/C=C/C=C/C=C/c2[nH]ccc2Cl)oc(=O)c1C`: the IC50 in the experiment on Raji [7] is 10000 nM; in the experiment with CCRF-CEM [3] (read-out: pIC50 (converted)) it was 1580 nM.
Take `CCOC(=O)/C(C)=C/C=C/C=C/C=C/c1ccc[nH]1`: the IC50 was 98 nM with THP-1 [1]; 1600 nM in the experiment on Raji [4]; 92 nM with TF-1 [2]; 90 nM in the experiment on CCRF-CEM [3] (read-out: IC50); 79.4 nM with CCRF-CEM [3] (read-out: pIC50 (converted)); 280 nM with K562 [5].
Turning to `CCOC(=O)/C(C)=C/C=C/C=C/C=C/c1cccn1C`, the IC50 in the experiment on Raji [4], in the experiment with CCRF-CEM [3] (read-out: IC50) and in the experiment with CCRF-CEM [3] (read-out: pIC50 (converted)) was > 10000 nM in each case.
Take `CCOC(=O)/C=C/C=C/C=C/C=C/c1[nH]ccc1Cl`: the IC50 in the experiment with K562 [8] was > 10000 nM; in the experiment with Raji [7], 10000 nM; in the experiment with CCRF-CEM [3] (read-out: pIC50 (converted)) it was 251 nM; with TF-1 [9], 230 nM; in the experiment on THP-1 [10], 1200 nM.
